Test results taken from patent publication US8142799B2, “High potency clinical anti-craving treatment and method of use” (priority 2001, dated 2012).

time to PH breakdown (L-Glutathione at a PH value of roughly 7 in the amino-acid component): a few weeks
PH above which L-glutathione itself breaks down (at compounding): above 7.2
Structure (SMILES): N[C@@H](CCC(=O)N[C@@H](CS)C(=O)NCC(=O)O)C(=O)O [L-glutathione]
